From article PMC5753150 (Beilstein Journal of Organic Chemistry, 2017)
Entries after “also recorded” stand apart in the source; their conditions may differ. *1 amine or outer side, *2 acyl side, *3 side chain or, on linkers, in order; H or OH if unused. Where a SMILES comes first, the peptide text is derived from it. [ ]: non-standard residue; d: D form. X1 = C[C@@H](CC(F)(F)F)[C@H](N[*:1])C(=O)[*:2]; 2Abz = Nc1ccccc1C(=O)O

Columns and labels:
elastase (EC 3.4.21.36) [1] = molecular target: elastase (EC 3.4.21.36) (Sus scrofa, UniProt P00772)
Chain of elastase (EC 3.4.21.36) (Sus scrofa, UniProt P00772) (P00772 27-266): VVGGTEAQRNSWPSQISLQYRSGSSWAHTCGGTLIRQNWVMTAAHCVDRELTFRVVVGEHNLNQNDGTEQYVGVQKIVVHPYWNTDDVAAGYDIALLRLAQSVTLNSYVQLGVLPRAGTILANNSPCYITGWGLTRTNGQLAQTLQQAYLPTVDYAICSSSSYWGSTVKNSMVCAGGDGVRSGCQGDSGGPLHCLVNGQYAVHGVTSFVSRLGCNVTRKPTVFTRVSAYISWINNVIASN
Procedure: (§1) The course of proteolytic digestion was characterized by an analytical HPLC-assay with fluorescence detection. For quantification of substrate degradation, integration of the corresponding HPLC peak was conducted. Cleavage products were identified by ESI–ToF mass spectrometry (see Supporting Information File 1, Tables S4–S7).
(§2) All peptides employed in the degradation studies were used as the TFA salts obtained after lyophilization. Stock solutions of α-chymotrypsin (from bovine pancreas, EC 3.4.21.1, ≥40.0 units/mg of protein, Sigma Aldrich, St. Louis, MO, USA), and pepsin (from porcine stomach mucosa, EC 3.4.23.1, ≥250 units/mg of protein, Sigma Aldrich, St. Louis, MO, USA) were prepared at concentrations of 1 mg/mL in phosphate buffer (10 mM, pH 7.4), or in acetate buffer (10 mM, pH 4.0), respectively. For proteinase K (from tritirachium album, EC 3.4.21.64, ≥30 units/mg of protein, Sigma Aldrich, St. Louis, MO, USA) and elastase (from porcine pancreas, EC 3.4.21.36, 6.2 units/mg of protein, Sigma Aldrich, St. Louis, MO, USA) stock solutions were prepared also at concentrations of 1 mg/mL in tris/HCl (50 mM) + CaCl2 (10 mM) buffer (pH 7.5), or in tris/HCl buffer (100 mM, pH 8.4), respectively. Peptides (0.002 mmol) were prepared as stocks in DMSO (100 µL) and incubated with the respective enzyme at 30 °C (for α-chymotrypsin and pepsin) or 37 °C (for proteinase K and elastase) with shaking at 300 rpm in a thermomixer over a period of 24 h. The reaction mixture consisted of DMSO (15 µL), corresponding buffer (25 µL), peptide solution (5 µL) and the corresponding enzyme solution (5 µL). […] Aliquots of 5 µL were taken at fixed time points (0, 15, 30, 60, 90, 120 min as well as 3 h and 24 h) and either quenched with ACN containing 0.1% (v/v) TFA (95 µL), in the case of α-chymotrypsin, proteinase K and elastase, or 2% aqueous ammonia (95 µL), in the case of pepsin. All samples were subjected to analytical HPLC on a LaChrom-ELITE-HPLC-System equipped with a fluorescence detector (VWR International Hitachi, Darmstadt, Germany). A monolithic reversed-phase C8 Chromolith® Performance HPLC column (100 × 4.6 mm, Merck KGaA, Darmstadt, Germany) was used to resolve and quantify the products of digestion. The used system and gradients are described in detail in Supporting Information File 1. Detection based on the Abz label was carried out using a fluorescence detector with λex = 320 nm and λem = 420 nm. In all cases, the peaks corresponding to the starting materials (full-length peptides) or the N-terminal fragments (products) were integrated and used to determine the velocity of the reaction (see Supporting Information File 1). […] Each fragment cleaved from the full-length peptide was identified by ESI–ToF mass analysis on an Agilent 6220 ESI–ToF–MS spectrometer (Agilent Technologies, Santa Clara, CA, USA, see Supporting Information File 1). All experiments were performed in triplicate.
(§3) 2130) with solvent degasser, an autosampler (L-2200) with a 100 µL sample loop, a diode array flow detector (L-2455), a fluorescence detector (L-2485) and a high pressure gradient mixer. As eluents water and ACN, both containing 0.1% (v/v) TFA were used, and a flow rate of 3 mL/min was applied. The used linear gradients are […]
(§4) For the non-fluorinated peptides method A was used to follow the digestion process, and for the fluorinated peptides method B was applied. For […]
(§5) The obtained data were analyzed with EZChrom Elite software
(§6) (version 3.3.2, Agilent Technologies, Santa Clara, CA, USA).

[2] = molecular target: T1, α-chymotrypsin (EC 3.4.21.1) (Bos taurus, UniProt P00766); assay: Protease digestion assay with α-chymotrypsin (FL-RP-HPLC); format: in vitro ADME, bovine
T1 construct: purchased Sigma Aldrich; host or cells: bovine pancreas
Procedure: The FA peptide was used as a reference. […] All experiments were performed in triplicate.
The used linear gradients are
chromatograms where an insufficient baseline separation was observed,
(proteinase K)]. The obtained data were analyzed with EZChrom Elite software
Method Time [min] Water + 0.1% (v/v) TFA [%] ACN + 0.1% (v/v) TFA [%]

pepsin (EC 3.4.23.1) [3] = molecular target: pepsin (EC 3.4.23.1) (Sus scrofa, UniProt P00791); assay: in vitro
Chain of pepsin (EC 3.4.23.1) (Sus scrofa, UniProt P00791) (P00791 60-385): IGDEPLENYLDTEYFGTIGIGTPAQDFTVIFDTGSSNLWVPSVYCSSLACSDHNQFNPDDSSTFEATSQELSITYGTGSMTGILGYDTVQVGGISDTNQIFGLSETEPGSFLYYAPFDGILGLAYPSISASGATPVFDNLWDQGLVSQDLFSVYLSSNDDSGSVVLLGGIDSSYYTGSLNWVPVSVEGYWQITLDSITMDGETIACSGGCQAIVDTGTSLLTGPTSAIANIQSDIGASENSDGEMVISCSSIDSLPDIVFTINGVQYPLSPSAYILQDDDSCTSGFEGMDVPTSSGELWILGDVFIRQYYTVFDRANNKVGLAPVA
Procedure: as §1, §2, §3, §4, §5, §6

[4] = test system: proteinase K (EC 3.4.21.64); assay: proteinase K in 50 mM Tris/HCl buffer, containing 10 mM CaCl2 pH 7.5; conditions: tritirachium album, 37 °C, up to 24 h
elastase (EC 3.4.21.36) [5] = assay: elastase in 100 mM Tris/HCl buffer, pH 8.4; conditions: porcine pancreas, 37 °C, up to 24 h
[6] = test system: α-chymotrypsin (EC 3.4.21.1); assay: α-chymotrypsin in 10 mM phosphate buffer, pH 7.4; conditions: bovine pancreas, 30 °C, up to 24 h
pepsin (EC 3.4.23.1) [7] = assay: pepsin in 10 mM acetate buffer, pH 4.0; conditions: porcine stomach mucosa, 30 °C, up to 24 h
[8] = elastase, 100 mM Tris/HCl buffer pH 8.4, 37 °C, FL-RP-HPLC

Row | cleaved bond [4] | cleaved bond (elastase (EC 3.4.21.36) [5]) | cleaved bond [6] | cleaved bond (pepsin (EC 3.4.23.1) [7]) | Compound | not cleaved (elastase (EC 3.4.21.36) [5]) | other results
1 | – | – | – | – | C[C@H](NC(=O)[C@H](C)NC(=O)[C@@H](NC(=O)[C@H](Cc1ccccc1)NC(=O)[C@H](C)NC(=O)[C@H](C)NC(=O)[C@H](CCCCN)NC(=O)c1ccccc1N)[C@@H](C)CC(F)(F)F)C(=O)N[C@@H](C)C(=O)N[C@@H](CCCCN)C(=O)O [P1’-TfIleFA] (H-[2Abz]KAAF[X1]AAAK-OH) | – | Proteolytic stability compared to control peptide FA after 24 h (elastase (EC 3.4.21.36) [1]; [8]): comparably stable; Gain in stability upon fluorination compared to the non-fluorinated (Leu or Ile) analogue, 24 h (elastase (EC 3.4.21.36) [1]; elastase, 100 mM Tris/HCl buffer pH 8.4, 37 °C, after 24 h): accelerates enzymatic degradation
2 | – | – | – | – | CC(C)C[C@H](NC(=O)[C@H](C)NC(=O)[C@H](Cc1ccccc1)NC(=O)[C@H](C)NC(=O)[C@H](C)NC(=O)[C@H](CCCCN)NC(=O)c1ccccc1N)C(=O)N[C@@H](C)C(=O)N[C@@H](C)C(=O)N[C@@H](CCCCN)C(=O)O [P2’-LeuFA] (H-[2Abz]KAAFALAAK-OH) | – | Proteolytic stability compared to control peptide FA after 120 min ([2]; α-chymotrypsin, 10 mM phosphate buffer pH 7.4, 30 °C, 120 min, FL-RP-HPLC, three independent measurements): more stable against digestion; Proteolytic stability compared to control peptide FA after 24 h ([2]; α-chymotrypsin, 10 mM phosphate buffer pH 7.4, 30 °C, 24 h, FL-RP-HPLC, three independent measurements): accelerated proteolysis compared to FA; Proteolytic stability compared to control peptide FA after 120 min (pepsin (EC 3.4.23.1) [3]; pepsin, 10 mM acetate buffer pH 4.0, 30 °C, 120 min, FL-RP-HPLC): degraded faster than the control FA; Degradation state after incubation for 120 min (elastase (EC 3.4.21.36) [1]; elastase (porcine pancreas), 100 mM Tris/HCl buffer pH 8.4 with DMSO, 37 °C, 120 min, FL-RP-HPLC, mean of three independent measurements): somewhat digested
3 | A-F and A-Ile | A-F and Ile-A and A-A and A-K | F-A, major | F-A | Abz-KAAFAIleAAK | no fragments with Phe in the P1 position observed | –
4 | A-F | A-F and TfIle-A | F-A, major | F-A and A-TfIle and A-F | Abz-KAAFATfIleAAK | no fragments with Phe in the P1 position observed | –
5 | – | – | – | – | CC(C)C[C@H](NC(=O)[C@H](C)NC(=O)[C@H](CCCCN)NC(=O)c1ccccc1N)C(=O)N[C@@H](Cc1ccccc1)C(=O)N[C@@H](C)C(=O)N[C@@H](C)C(=O)N[C@@H](C)C(=O)N[C@@H](C)C(=O)N[C@@H](CCCCN)C(=O)O [P2-LeuFA] (H-[2Abz]KALFAAAAK-OH) | – | Percentage of substrate remaining after incubation for 24 h ([2]; α-chymotrypsin (bovine pancreas), 10 mM phosphate buffer pH 7.4 with DMSO, 30 °C, 24 h, FL-RP-HPLC peak integration (Abz, λex 320/λem 420 nm), average of three independent measurements): complete proteolysis
6 | Leu-F and A-A | A-Leu and A-A and A-K | F-A, major | F-A | Abz-KALeuFAAAAK | – | –
7 | – | – | – | – | C[C@H](NC(=O)[C@H](C)NC(=O)[C@H](C)NC(=O)[C@H](Cc1ccccc1)NC(=O)[C@H](C)NC(=O)[C@H](C)NC(=O)[C@H](CCCCN)NC(=O)c1ccccc1N)C(=O)N[C@@H](C)C(=O)N[C@@H](CCCCN)C(=O)O [FA] (H-[2Abz]KAAFAAAAK-OH) | – | Percentage of substrate remaining after incubation for 24 h (pepsin (EC 3.4.23.1) [3]; pepsin (porcine stomach mucosa), 10 mM acetate buffer pH 4.0 with DMSO, 30 °C, 24 h, FL-RP-HPLC peak integration (Abz, λex 320/λem 420 nm), average of three independent measurements): almost completely degraded
8 | F-A | Ile-F and A-A and A-K | F-A, major | F-A | Abz-KAIleFAAAAK | no fragments with Phe in the P1 position observed | –
9 | F-A and A-A | TfIle-F and A-A | – | – | Abz-KATfIleFAAAAK | no fragments with Phe in the P1 position observed | not cleaved [6]: not digested at all; not cleaved (pepsin (EC 3.4.23.1) [7]): 100% after 24 h
10 | A-F and A-A | A-F and A-A | F-Ile, major | – | Abz-KAAFIleAAAK | no fragments with Phe in the P1 position observed | –
11 | HfLeu-F and A-A | HfLeu-F and A-A | – | F-A and HfLeu-F | Abz-KAHfLeuFAAAAK | no fragments with Phe in the P1 position observed | not cleaved [6]: not digested at all
12 | – | – | – | – | CC[C@H](C)[C@H](NC(=O)[C@H](Cc1ccccc1)NC(=O)[C@H](C)NC(=O)[C@H](C)NC(=O)[C@H](CCCCN)NC(=O)c1ccccc1N)C(=O)N[C@@H](C)C(=O)N[C@@H](C)C(=O)N[C@@H](C)C(=O)N[C@@H](CCCCN)C(=O)O [P1’-IleFA] (H-[2Abz]KAAFIAAAK-OH) | – | Proteolytic stability compared to control peptide FA after 24 h (elastase (EC 3.4.21.36) [1]; [8]): more stable than the control peptide FA
13 | A-F and A-A | A-A | F-TfIle, major | F-TfIle | Abz-KAAFTfIleAAAK | no fragments with Phe in the P1 position observed | –
14 | A-F and A-A | K-A and A-A and A-F and A-K | F-Leu, major; also recorded: Leu-A | F-Leu; also recorded: Leu-Ala | Abz-KAAFLeuAAAK | no fragments with Phe in the P1 position observed | –
15 | A-HfLeu; also recorded: HfLeu-A | K-A and A-A and A-F and A-HfLeu | F-A, major | A-HfLeu | Abz-KAAFAHfLeuAAK | no fragments with Phe in the P1 position observed | not cleaved (pepsin (EC 3.4.23.1) [7]): not hydrolyzed at the designed cleavage site
16 | A-F | K-A and A-A | F-HfLeu, major; also recorded: HfLeu-A | F-HfLeu; also recorded: HfLeu-Ala | Abz-KAAFHfLeuAAAK | no fragments with Phe in the P1 position observed | –
17 | A-A | A-A | F-A, major | F-A | Abz-KAAFAAAAK | no fragments with Phe in the P1 position observed | –
